Records with an inconclusive call do not appear.
Test system: nude mice, HT29 intrarenal xenograft, tumor weight T/C
Assay: NCI In Vivo Anticancer Drug Screen. Data for tumor model HT29;CX-1 Human Adenocarcinoma (MER+) (intrarenal inoculation) in NU/NU Swiss (nude) mice
Details: endpoint: mean tumor weight change, higher = larger tumour
Outline: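 Tumor-bearing mice received test compound or vehicle, and tumor size or survival was recorded. Values are the treated-group measurement divided by the vehicle-treated control measurement.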

[1] = dose: 300.0 mg/kg/injection, schedule: Q04DX004 (sc), vehicle: saline with Tween-80
[2] = dose: 600.0 mg/kg/injection, schedule: Q04DX004 (sc), vehicle: saline with Tween-80
[3] = dose: 1200.0 mg/kg/injection, schedule: Q04DX004 (sc), vehicle: saline with Tween-80
[4] = dose: 200.0 mg/kg/injection, schedule: Q01DX010 (sc), vehicle: water
[5] = dose: 400.0 mg/kg/injection, schedule: Q01DX010 (sc), vehicle: water
[6] = dose: 800.0 mg/kg/injection, schedule: Q01DX010 (sc), vehicle: water
[7] = dose: 75.0 mg/kg/injection, schedule: Q04DX004 (sc), vehicle: Klucel (hydroxypropylcellulose) (HPC)
[8] = dose: 150.0 mg/kg/injection, schedule: Q04DX004 (sc), vehicle: Klucel (hydroxypropylcellulose) (HPC)
[9] = dose: 400.0 mg/kg/injection, schedule: Q04DX004 (sc), vehicle: saline with Tween-80
[10] = dose: 800.0 mg/kg/injection, schedule: Q04DX004 (sc), vehicle: saline with Tween-80
[11] = dose: 300.0 mg/kg/injection, schedule: Q04DX004 (sc), vehicle: saline
[12] = dose: 75.0 mg/kg/injection, schedule: Q04DX004 (sc), vehicle: saline
[13] = dose: 150.0 mg/kg/injection, schedule: Q04DX004 (sc), vehicle: saline
[14] = dose: 100.0 mg/kg/injection, schedule: Q04DX004 (sc), vehicle: suspension in saline
[15] = dose: 200.0 mg/kg/injection, schedule: Q04DX004 (sc), vehicle: suspension in saline
[16] = dose: 100.0 mg/kg/injection, schedule: Q04DX004 (sc), vehicle: saline with Tween-80
[17] = dose: 200.0 mg/kg/injection, schedule: Q04DX004 (sc), vehicle: saline with Tween-80

Cc1cc(NCCCN(C)C)c2ccc3c(ccc4c(NCCCN(C)C)cc(C)nc43)c2n1
T/C (dose: 9.38 mg/kg/injection, schedule: Q04DX004 (sc), vehicle: saline with Tween-80): 53 % of control

OCC1OC(n2cnc3cc(Cl)c(Cl)cc32)C(O)C1O (centres undefined)
T/C [1]: 111 % of control | T/C [2]: 60 % of control | T/C [3]: 122 % of control

O=C1c2c(O)ccc(O)c2C(=O)c2c(NCCNCCO)ccc(NCCNCCO)c21
T/C (dose: 0.13 mg/kg/injection, schedule: Q01DX010 (sc), vehicle: acid diluted with saline): 89 % of control | T/C (dose: 0.25 mg/kg/injection, schedule: Q01DX010 (sc), vehicle: acid diluted with saline): 75 % of control | T/C (dose: 2.5 mg/kg/injection, schedule: Q04DX004 (sc), vehicle: water): 73 % of control | T/C (dose: 5.0 mg/kg/injection, schedule: Q04DX004 (sc), vehicle: water): 104 % of control | T/C (dose: 10.0 mg/kg/injection, schedule: Q04DX004 (sc), vehicle: water): 76 % of control

O=C1NC(O)CCN1C1OC(CO)C(O)C1O (centres undefined)
T/C [4]: 83 % of control | T/C [5]: 70 % of control | T/C [6]: 63 % of control | T/C (dose: 1600.0 mg/kg/injection, schedule: Q01DX010 (sc), vehicle: water): 67 % of control

CCN(CC)c1ccc2cc(-c3nc4ccccc4n3C)c(=O)oc2c1
T/C [7]: 82 % of control | T/C [8]: 67 % of control | T/C (dose: 300.0 mg/kg/injection, schedule: Q04DX004 (sc), vehicle: Klucel (hydroxypropylcellulose) (HPC)): 88 % of control

Cc1cc(NCCCCCCCNc2cc(C)nc3cc(N)ccc23)c2ccc(N)cc2n1
T/C (dose: 12.5 mg/kg/injection, schedule: Q04DX004 (sc), vehicle: saline with Tween-80): 32 % of control | T/C (dose: 25.0 mg/kg/injection, schedule: Q04DX004 (sc), vehicle: saline with Tween-80): 56 % of control | T/C (dose: 50.0 mg/kg/injection, schedule: Q04DX004 (sc), vehicle: saline with Tween-80): 51 % of control

O=C1C=CC(=O)N1c1ccc(Cl)cc1
T/C (dose: 37.5 mg/kg/injection, schedule: Q04DX004 (sc), vehicle: Klucel (hydroxypropylcellulose) (HPC)): 70 % of control | T/C [7]: 70 % of control | T/C [8]: 106 % of control

CCOC(=O)[C@]1(Br)CC[C@@]1(Br)C(=O)OCC
T/C [9]: 105 % of control | T/C [10]: 93 % of control | T/C (dose: 1600.0 mg/kg/injection, schedule: Q04DX004 (sc), vehicle: saline with Tween-80): 43 % of control

CCCCCCCCCCCCCCCC(=O)Nc1ccn(C2OC(CO)C(O)C2O)c(=O)n1 (centres undefined)
T/C (dose: 56.25 mg/kg/injection, schedule: Q04DX004 (sc), vehicle: water): 114 % of control

O=c1ncccn1[C@@H]1O[C@H](CO)[C@H](O)C1O (some centres undefined)
T/C [11]: 110 % of control | T/C (dose: 600.0 mg/kg/injection, schedule: Q04DX004 (sc), vehicle: saline): 87 % of control | T/C (dose: 1200.0 mg/kg/injection, schedule: Q04DX004 (sc), vehicle: saline): 51 % of control | T/C (dose: 2400.0 mg/kg/injection, schedule: Q04DX004 (sc), vehicle: saline): 55 % of control

C=CCOCC1CO1 (centres undefined)
T/C [12]: 120 % of control | T/C [13]: 100 % of control | T/C [11]: 54 % of control

COC1C(OC(=O)/C=C/C=C/C=C/C=C/C(=O)O)CCC2(CO2)C1C1(C)OC1CC=C(C)C (centres undefined)
T/C [12]: 104 % of control | T/C [13]: 96 % of control | T/C [11]: 119 % of control

CNC(=O)ON(C(C)=O)C(=O)NC
T/C (dose: 25.0 mg/kg/injection, schedule: Q01DX010 (sc), vehicle: saline): 75 % of control | T/C (dose: 50.0 mg/kg/injection, schedule: Q01DX010 (sc), vehicle: saline): 109 % of control | T/C (dose: 50.0 mg/kg/injection, schedule: Q04DX004 (sc), vehicle: saline): 34 % of control | T/C (dose: 100.0 mg/kg/injection, schedule: Q01DX010 (sc), vehicle: saline): 13 % of control | T/C [14]: 116 % of control | T/C (dose: 150.0 mg/kg/injection, schedule: Q04DX004 (sc), vehicle: suspension in saline): 114 % of control | T/C [15]: 57 % of control | T/C (dose: 250.0 mg/kg/injection, schedule: Q04DX004 (sc), vehicle: suspension in saline): 18 % of control

CN(C1=NS(=O)(=O)N=C(N(C)c2ccccc2)O1)c1ccccc1
T/C (dose: 225.0 mg/kg/injection, schedule: Q04DX004 (sc), vehicle: Klucel (hydroxypropylcellulose) (HPC)): 95 % of control | T/C (dose: 450.0 mg/kg/injection, schedule: Q04DX004 (sc), vehicle: Klucel (hydroxypropylcellulose) (HPC)): 153 % of control | T/C (dose: 1800.0 mg/kg/injection, schedule: Q04DX004 (sc), vehicle: Klucel (hydroxypropylcellulose) (HPC)): 168 % of control

C=C(C)C(=O)OC1C/C(CO)=C\C(O)C/C(C)=C/C2OC(=O)C(=C)C21 (centres undefined)
T/C (dose: 20.0 mg/kg/injection, schedule: Q04DX004 (sc), vehicle: saline + alcohol): 100 % of control | T/C (dose: 40.0 mg/kg/injection, schedule: Q04DX004 (sc), vehicle: saline + alcohol): 83 % of control | T/C (dose: 80.0 mg/kg/injection, schedule: Q04DX004 (sc), vehicle: saline + alcohol): 70 % of control

C=CCNc1nc2c(s1)CCc1cc(OC)c(OC)cc1-2
T/C (dose: 150.0 mg/kg/injection, schedule: Q04DX004 (sc), vehicle: saline with Tween-80): 38 % of control | T/C [1]: 114 % of control | T/C [2]: 113 % of control | T/C [3]: 80 % of control

O=C1CC2(C(=O)N1CN1CCCCC1)c1ccccc1-c1ccccc12
T/C (dose: 100.0 mg/kg/injection, schedule: Q04DX004 (sc), vehicle: Klucel (hydroxypropylcellulose) (HPC)): 43 % of control | T/C (dose: 400.0 mg/kg/injection, schedule: Q04DX004 (sc), vehicle: Klucel (hydroxypropylcellulose) (HPC)): 69 % of control | T/C (dose: 800.0 mg/kg/injection, schedule: Q04DX004 (sc), vehicle: Klucel (hydroxypropylcellulose) (HPC)): 70 % of control

C=C(C)C(=NC(C)(C)C)Nc1ccccc1
T/C [16]: 52 % of control

C/C(=N\N=C(/[Se])N1CC2CCC(CC2)C1)c1ccccn1
T/C (dose: 6.25 mg/kg/injection, schedule: Q04DX004 (sc), vehicle: Klucel (hydroxypropylcellulose) (HPC)): 60 % of control | T/C (dose: 12.5 mg/kg/injection, schedule: Q04DX004 (sc), vehicle: Klucel (hydroxypropylcellulose) (HPC)): 83 % of control | T/C (dose: 25.0 mg/kg/injection, schedule: Q04DX004 (sc), vehicle: Klucel (hydroxypropylcellulose) (HPC)): 81 % of control | T/C (dose: 50.0 mg/kg/injection, schedule: Q04DX004 (sc), vehicle: Klucel (hydroxypropylcellulose) (HPC)): 86 % of control

O=C1[C@H]2CCC[C@H]2[C@H]2CCC[C@@H]12
T/C [16]: 67 % of control | T/C [17]: 44 % of control | T/C [9]: 83 % of control | T/C [10]: 82 % of control

C(C#CCN1CCOCC1)#CCN1CCOCC1
T/C (dose: 600.0 mg/kg/injection, schedule: Q04DX004 (sc), vehicle: Klucel (hydroxypropylcellulose) (HPC)): 100 % of control | T/C (dose: 1200.0 mg/kg/injection, schedule: Q04DX004 (sc), vehicle: Klucel (hydroxypropylcellulose) (HPC)): 72 % of control | T/C (dose: 2400.0 mg/kg/injection, schedule: Q04DX004 (sc), vehicle: Klucel (hydroxypropylcellulose) (HPC)): 68 % of control

Nc1nc(-c2cccc3ccccc23)cc2ccccc12
T/C [17]: 67 % of control | T/C [9]: 105 % of control

CC(C)[C@](O)(C(=O)OCC1=CC[N+]2([O-])CC[C@@H](O)[C@@H]12)[C@H](C)O (some centres undefined)
T/C (dose: 100.0 mg/kg/injection, schedule: Q01DX010 (sc), vehicle: water): 38 % of control | T/C [4]: 48 % of control | T/C [5]: 36 % of control | T/C [6]: 44 % of control

Cc1cn(C2CC(F)C(CO)O2)c(=O)[nH]c1=O (centres undefined)
T/C [14]: 65 % of control | T/C [15]: 60 % of control | T/C (dose: 400.0 mg/kg/injection, schedule: Q04DX004 (sc), vehicle: suspension in saline): 117 % of control | T/C (dose: 800.0 mg/kg/injection, schedule: Q04DX004 (sc), vehicle: suspension in saline): 74 % of control
